Assay results from the supplement of paper PMC10307832.

How the values were obtained:
Test in all cases: relative viability (nuclei count vs DMSO), 5 days (fraction); higher = more cells survive
[1] = compound: CN1C=C(C2=CC=CC=C21)/C=C\3/C4=C(C=CC=N4)NC3=O + CS(=O)(=O)CCNCc1ccc(-c2ccc3ncnc(Nc4ccc(OCc5cccc(F)c5)c(Cl)c4)c3c2)o1 [Lapatinib] (partner 2 µM)
Method in brief: (§1)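 Lung cancer cell lines in 1536-well plates got either a single drug or a fixed anchor-drug dose together with five library-drug doses (not always all listed) in √10 steps, by pin tool, on the day after seeding. Nuclei were counted after 5 days, and relative viability is the treated-to-vehicle ratio of nuclei counts. Values are medians of duplicate plates.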

[2] = compound: CN1C=C(C2=CC=CC=C21)/C=C\3/C4=C(C=CC=N4)NC3=O + Cc1cc(Nc2cc(N3CCN(C)CC3)nc(Sc3ccc(NC(=O)C4CC4)cc3)n2)n[nH]1 [Tozasertib] (partner 0.1 µM)
Method in brief: as §1

Trametinib + Decitabine = compound: CC(=O)Nc1cccc(-n2c(=O)n(C3CC3)c(=O)c3c(Nc4ccc(I)cc4F)n(C)c(=O)c(C)c32)c1 [Trametinib] + Nc1ncn([C@H]2C[C@H](O)[C@@H](CO)O2)c(=O)n1 [Decitabine] (partner 2 µM)
Method in brief: as §1

[3] = compound: CN1C=C(C2=CC=CC=C21)/C=C\3/C4=C(C=CC=N4)NC3=O + CC(=O)Nc1cccc(-n2c(=O)n(C3CC3)c(=O)c3c(Nc4ccc(I)cc4F)n(C)c(=O)c(C)c32)c1 [Trametinib] (partner 0.02 µM)
Method in brief: as §1

Cell Line	relative viability ([1]; first compound 0.02 µM)	relative viability ([1]; first compound 0.06325 µM)	relative viability ([1]; first compound 0.2 µM)	relative viability ([1]; first compound 0.6325 µM)	relative viability ([1]; first compound 2 µM)	relative viability ([2]; first compound 0.02 µM)	relative viability ([2]; first compound 0.06325 µM)	relative viability ([2]; first compound 0.6325 µM)	relative viability ([2]; first compound 2 µM)	relative viability (Trametinib + Decitabine; first compound 0.0025 µM)	relative viability (Trametinib + Decitabine; first compound 0.007906 µM)	relative viability (Trametinib + Decitabine; first compound 0.025 µM)	relative viability (Trametinib + Decitabine; first compound 0.07906 µM)	relative viability (Trametinib + Decitabine; first compound 0.25 µM)	relative viability ([3]; first compound 0.02 µM)	relative viability ([3]; first compound 0.6325 µM)	relative viability ([3]; first compound 2 µM)	relative viability ([3]; first compound 0.06325 µM)	relative viability ([2]; first compound 0.2 µM)	relative viability ([3]; first compound 0.2 µM)
Calu-6	1.15	1	1	0.968	1.01	–	–	–	–	–	–	–	–	–	–	–	–	–	–	–
SW 900	–	–	–	–	–	0.468	0.531	0.452	0.389	0.396	0.335	0.388	0.491	0.39	0.763	0.676	0.799	–	–	–
NCI-H650	0.824	0.738	–	0.754	0.82	0.643	0.674	0.829	0.757	0.346	0.294	0.345	0.301	0.261	0.928	0.942	0.907	0.943	–	–
NCI-H460	1.11	1.06	1.09	–	1.23	0.458	0.403	0.363	0.0797	0.481	0.389	0.361	0.305	0.112	0.304	0.0905	0.12	0.158	0.448	0.0911
NCI-H2228	1.24	0.88	–	1.02	0.972	0.15	0.223	–	0.192	–	–	–	–	–	0.379	0.285	0.566	0.464	–	0.24
NCI-H2085	0.746	0.654	0.596	0.605	0.813	0.803	0.734	0.622	0.575	0.544	0.558	0.552	0.629	0.61	0.504	0.445	0.408	0.514	0.797	0.513
HCC-366	0.816	0.976	0.952	1.15	1.08	0.09	0.109	0.0587	0.0526	0.29	0.307	0.276	0.273	0.206	0.279	0.291	0.318	0.316	0.0765	0.307
EPLC-272H	0.979	0.819	–	0.995	0.883	0.193	0.276	–	0.283	0.357	0.324	0.326	0.336	0.293	0.348	0.283	0.267	0.263	0.244	–
201T	0.993	1.05	1.04	1.06	1.04	1	0.96	0.897	0.781	0.854	0.743	0.765	0.782	0.749	0.758	0.797	0.763	0.727	0.947	0.754
NCI-H3122	0.928	0.934	0.952	1.06	1.02	0.37	0.343	0.398	0.49	0.416	0.383	0.315	0.279	0.268	0.153	0.242	0.269	0.21	–	0.227
